Data set [1] can be described thus: Log P.
In data set [2] the test system is green peach aphid (Myzus persicae). As to the kind of experiment: Myzus test (MYZUPE), spray treatment. It is filed as in vivo. The following applies: 20 g/ha. The method, then:
[table] To produce a suitable preparation of active compound, 1 part by weight of active compound is mixed with the stated amounts of solvent and emulsifier, and the concentrate is diluted with emulsifier-containing water to the desired concentration. Disks of Chinese cabbage (Brassica pekinensis) which are infested with all stages of the green peach aphid (Myzus persicae) are sprayed with a preparation of active compound of the desired concentration. After the desired period of time, the effect in % is determined. 100% means that all aphids have been killed; 0% means that none of the aphids have been killed. [table] To produce a suitable preparation of active compound, 1 part by weight of active compound is mixed with the stated amounts of solvent and emulsifier, and the concentrate is diluted with emulsifier-containing water to the desired concentration. Disks of Chinese cabbage (Brassica pekinensis) which are infested with all stages of the green peach aphid (Myzus persicae) are sprayed with a preparation of active compound of the desired concentration. After the desired period of time, the effect in % is determined. 100% means that all aphids have been killed; 0% means that none of the aphids have been killed.

Data set [3] concerns greenhouse red spider mite (Tetranychus urticae). As to the kind of experiment: Tetranychus test, OP-resistant (TETRUR), spray treatment. It is filed as in vivo. The following applies: 100 g/ha. On the procedure: To produce a suitable preparation of active compound, 1 part by weight of active compound is mixed with the stated amounts of solvents and emulsifier, and the concentrate is diluted with emulsifier-containing water to the desired concentration.
Discs of bean leaves (Phaseolus vulgaris) which are infested by all stages of the greenhouse red spider mite (Tetranychus urticae) are sprayed with a preparation of active compound of the desired concentration.
After the desired period of time, the effect in % is determined. 100% means that all spider mites have been killed; 0% means that none of the spider mites have been killed.

`CC(NC(=O)NCCCl)c1ccccc1Cl` (stereo not drawn) [1-(2-chloroethyl)-3-[1-(2-chlorophenyl)ethyl]urea] came in with a logP in data set [1] of 2.3.
Consider `CCC(N=C1OCCN1C(=S)NCc1ccccc1)c1ccccc1` (stereo not drawn) [compound 68], for which, in data set [1] (acidic, Phys. Data cells marked (C)), the “log P (acidic)” value is 4.68 (C).
For `C[C@H](/N=C1\OCCN1C(=S)NCC#N)c1ccccc1` [Compound 94, (2Z)—N-(cyanomethyl)-2-[(1-phenylethyl)imino]-1,3-oxazolidine-3-carbothioamide], the logP in data set [1] amounted to 3.07.
`COCCNC(=S)N1CCO/C1=N\C(C)c1ccccc1Cl` (stereo not drawn) [Compound 10, (2Z)-2-{[1-(2-chlorophenyl)ethyl]imino}-N-(2-methoxyethyl)-1,3-oxazolidine-3-carbothioamide] returned a logP in data set [1] of 4.08.
On to `CC(N=C1OCCN1C(=S)NCC(F)(F)F)c1ccccc1` (stereo not drawn) [Compound 3], for which the “1. MYZUPE spray appl. % 6 d” value in data set [2] is given as 100%. In addition, in data set [3], the “2. TETRUR spray appl. % 6 d” value was determined as 70%.
On to `C[C@H](NC(=O)NCCCl)c1ccccc1` [1-(2-chloroethyl)-3-[(1S)-1-phenylethyl]urea], for which the logP in data set [1] came to 1.76.
Consider `COCCNC(=S)N1CCOC1=NC(C)c1ccccc1` (stereo not drawn) [Compound 2], for which the “1. MYZUPE spray appl. % 6 d” value in data set [2] is recorded as 100%. For the same compound, the “2. TETRUR spray appl. % 6 d” value in data set [3] was 90%.

Broadly, the logP is a log measure of how a compound divides between an organic and an aqueous phase. Lower therefore signals lower lipophilicity.
